From patent US20250281424A1 (New York Blood Center, Inc, priority 2020, published 2025)

Biological target: T1, human PF4 (Homo sapiens, UniProt P02776)
T1 construct: PF4 is a 70 amino acid, lysine-rich 7.8 kDa platelet-specific protein; made in house; host or cells: Escherichia coli BL21DE3 pLysS (pT7-7) and/or Drosophila S2 cells
T1 sequence (P02776 32-101): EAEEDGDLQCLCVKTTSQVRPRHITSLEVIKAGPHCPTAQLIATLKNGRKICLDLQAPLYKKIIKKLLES
Assay: Inhibition of PF4 tetramer formation (BS3 cross-linking, SDS-PAGE)
Format: biochemical
Conditions: for IC50: read-out: IC50 of PF4 tetramer formation inhibition; for inhibition at 5 µM: 5 μM inhibitor; for inhibition at 5 µM / inhibition at 10 µM: read-out: % inhibition of PF4 tetramer formation at single concentration of inhibitor; for inhibition at 10 µM: 10 μM inhibitor (column A)
In short: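 Recombinant human wild-type PF4 (E. coli-expressed, heparin-purified), 10 μg/ml in PBS, incubated with compound 15 min at 37° C or 60 min at room temperature, then cross-linked with 0.2 mM BS3 for 30 min at room temperature. Reducing 12% SDS-PAGE; bands quantified as % tetramer, trimer, dimer, monomer versus compound-free control.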

Compound	IC50	inhibition at 5 µM	inhibition at 10 µM
CC(C)OC(=O)N1CCC[C@H]1C(=O)C1C(=O)c2ccc(C(=O)c3ccc4c(c3)C(=O)C(C(=O)[C@@H]3CCCN3C(=O)OC(C)C)C4=O)cc2C1=O (stereo partly drawn) [Example 134, propan-2-yl (2S)-2-(5-{1,3-dioxo-2-[(2S)-1-[(propan-2-yloxy)carbonyl]pyrrolidine-2-carbonyl]-2,3-dihydro-1H-indene-5-carbonyl}-1,3-dioxo-2,3-dihydro-1H-indene-2-carbonyl)pyrrolidine-1-carboxylate]	1.1 µM	–	–
CC1(C)O[C@H]2O[C@@H](/C(O)=C3\C(=O)c4ccc(C(=O)c5ccc6c(c5)C(=O)/C(=C(\O)[C@@H]5O[C@@H]7OC(C)(C)O[C@@H]7[C@H]7OC(C)(C)O[C@@H]75)C6=O)cc4C3=O)[C@H]3OC(C)(C)O[C@@H]3[C@H]2O1 [Example 135, 5-{1,3-dioxo-2-[(1S,2R,6R,8R,9S)-4,4,11,11-tetramethyl-3,5,7,10,12-pentaoxatricyclo[7.3.0.0^2,^6]dodecane-8-carbonyl]-2,3-dihydro-1H-indene-5-carbonyl}-2-[(1S,2R,6R,8R,9S)-4,4,11,11-tetramethyl-3,5,7,10,12-pentaoxatricyclo[7.3.0.0^2,^6]dodecane-8-carbonyl]-2,3-dihydro-1H-indene-1,3-dione]	3.8 µM	79%	88%
CO[C@@H](C(=O)C1C(=O)c2ccc(S(=O)(=O)c3ccc4c(c3)C(=O)C(C(=O)[C@H](OC)c3ccccc3)C4=O)cc2C1=O)c1ccccc1 (stereo partly drawn) [Example 136, 2-[(2R)-2-methoxy-2-phenylacetyl]-5-({2-[(2R)-2-methoxy-2-phenylacetyl]-1,3-dioxo-2,3-dihydro-1H-inden-5-yl}sulfonyl)-2,3-dihydro-1H-indene-1,3-dione]	18 µM	75%	86%
O=C(Cc1ccccc1)C1C(=O)c2ccc(S(=O)(=O)c3ccc4c(c3)C(=O)C(C(=O)Cc3ccccc3)C4=O)cc2C1=O (stereo not shown) [Example 137, 5-{[1,3-dioxo-2-(2-phenylacetyl)-2,3-dihydro-1H-inden-5-yl]sulfonyl}-2-(2-phenylacetyl)-2,3-dihydro-1H-indene-1,3-dione]	6 µM	80%	85%
CC(C)(C)OC(=O)N1CC[C@H]1C(=O)C1C(=O)c2ccc(S(=O)(=O)c3ccc4c(c3)C(=O)C(C(=O)[C@@H]3CCN3C(=O)OC(C)(C)C)C4=O)cc2C1=O (stereo partly drawn) [Example 138, tert-butyl (2S)-2-[5-({2-[(2S)-1-[(tert-butoxy)carbonyl]azetidine-2-carbonyl]-1,3-dioxo-2,3-dihydro-1H-inden-5-yl}sulfonyl)-1,3-dioxo-2,3-dihydro-1H-indene-2-carbonyl]azetidine-1-carboxylate]	4.1 µM	–	–
O=C(Cn1cccn1)C1C(=O)c2ccc(S(=O)(=O)c3ccc4c(c3)C(=O)C(C(=O)Cn3cccn3)C4=O)cc2C1=O (stereo not shown) [Example 139, 5-({1,3-dioxo-2-[2-(1H-pyrazol-1-yl)acetyl]-2,3-dihydro-1H-inden-5-yl}sulfonyl)-2-[2-(1H-pyrazol-1-yl)acetyl]-2,3-dihydro-1H-indene-1,3-dione]	7 µM	87%	97%
O=C(c1ccc2c(c1)C(=O)C(C(=O)CC1CC1)C2=O)c1ccc2c(c1)C(=O)C(C(=O)CC1CC1)C2=O (stereo not shown) [Example 140, 2-(2-cyclopropylacetyl)-5-[2-(2-cyclopropylacetyl)-1,3-dioxo-2,3-dihydro-1H-indene-5-carbonyl]-2,3-dihydro-1H-indene-1,3-dione]	4.7 µM	92%	93%
O=C(c1ccc2c(c1)C(=O)C(C(=O)CC1CCCC1)C2=O)c1ccc2c(c1)C(=O)C(C(=O)CC1CCCC1)C2=O (stereo not shown) [Example 141, 2-(2-cyclopentylacetyl)-5-[2-(2-cyclopentylacetyl)-1,3-dioxo-2,3-dihydro-1H-indene-5-carbonyl]-2,3-dihydro-1H-indene-1,3-dione]	–	38%	68%
O=C(CC1CCCC1)C1C(=O)c2ccc(S(=O)(=O)c3ccc4c(c3)C(=O)C(C(=O)CC3CCCC3)C4=O)cc2C1=O (stereo not shown) [Example 142, 2-(2-cyclopentylacetyl)-5-{[2-(2-cyclopentylacetyl)-1,3-dioxo-2,3-dihydro-1H-inden-5-yl]sulfonyl}-2,3-dihydro-1H-indene-1,3-dione]	18 µM	95%	94%
O=C(c1ccc2c(c1)C(=O)C(C(=O)COc1ccccc1)C2=O)c1ccc2c(c1)C(=O)C(C(=O)COc1ccccc1)C2=O (stereo not shown) [Example 143, 5,5-[1,3-dioxo-2-(2-phenoxyacetyl)-2,3-dihydro-1H-indene-5-carbonyl]-2-(2-phenoxyacetyl)-2,3-dihydro-1H-indene-1,3-dione]	7 µM	–	–
O=C(COc1ccccc1)C1C(=O)c2ccc(S(=O)(=O)c3ccc4c(c3)C(=O)C(C(=O)COc3ccccc3)C4=O)cc2C1=O (stereo not shown) [Example 144, 5-{[1,3-dioxo-2-(2-phenoxyacetyl)-2,3-dihydro-1H-inden-5-yl]sulfonyl}-2-(2-phenoxyacetyl)-2,3-dihydro-1H-indene-1,3-dione]	4.7 µM	–	–
CC(C)CC(=O)C1C(=O)c2ccc(S(=O)(=O)c3ccc4c(c3)C(=O)C(C(=O)CC(C)C)C4=O)cc2C1=O (stereo not shown) [Example 145, 2-(3-methylbutanoyl)-5-{[2-(3-methylbutanoyl)-1,3-dioxo-2,3-dihydro-1H-inden-5-yl]sulfonyl}-2,3-dihydro-1H-indene-1,3-dione]	–	45%	55%
O=C(c1ccc2c(c1)C(=O)C(C(=O)C1CCOC1)C2=O)c1ccc2c(c1)C(=O)C(C(=O)C1CCOC1)C2=O (stereo not shown) [Example 146, 5-[1,3-dioxo-2-(oxolane-3-carbonyl)-2,3-dihydro-1H-indene-5-carbonyl]-2-(oxolane-3-carbonyl)-2,3-dihydro-1H-indene-1,3-dione]	–	44%	40%
O=C1c2ccc(S(=O)(=O)c3ccc4c(c3)C(=O)C(C(=O)C3CCOC3)C4=O)cc2C(=O)C1C(=O)C1CCOC1 (stereo not shown) [Example 147, 5-{[1,3-dioxo-2-(oxolane-3-carbonyl)-2,3-dihydro-1H-inden-5-yl]sulfonyl}-2-(oxolane-3-carbonyl)-2,3-dihydro-1H-indene-1,3-dione]	–	55%	59%
O=C(CC1CCCCC1)C1C(=O)c2ccc(S(=O)(=O)c3ccc4c(c3)C(=O)C(C(=O)CC3CCCCC3)C4=O)cc2C1=O (stereo not shown) [Example 148, 2-(2-cyclohexylacetyl)-5-{[2-(2-cyclohexylacetyl)-1,3-dioxo-2,3-dihydro-1H-inden-5-yl]sulfonyl}-2,3-dihydro-1H-indene-1,3-dione]	–	59%	90%
O=C(CC1CC1)C1C(=O)c2ccc(S(=O)(=O)c3ccc4c(c3)C(=O)C(C(=O)CC3CC3)C4=O)cc2C1=O (stereo not shown) [Example 149, 2-(2-cyclopropylacetyl)-5-{[2-(2-cyclopropylacetyl)-1,3-dioxo-2,3-dihydro-1H-inden-5-yl]sulfonyl}-2,3-dihydro-1H-indene-1,3-dione]	–	64%	53%
CCCC(=O)C1C(=O)c2ccc(C(=O)c3ccc4c(c3)C(=O)C(C(=O)CCC)C4=O)cc2C1=O (stereo not shown) [Example 150, 2-butanoyl-5-(2-butanoyl-1,3-dioxo-2,3-dihydro-1H-indene-5-carbonyl)-2,3-dihydro-1H-indene-1,3-dione]	~22 µM	50%	75%
COC1CCC(C(=O)C2C(=O)c3ccc(S(=O)(=O)c4ccc5c(c4)C(=O)C(C(=O)C4CCC(OC)CC4)C5=O)cc3C2=O)CC1 (stereo not shown) [Example 151, 2-(4-methoxycyclohexanecarbonyl)-5-{[2-(4-methoxycyclohexanecarbonyl)-1,3-dioxo-2,3-dihydro-1H-inden-5-yl]sulfonyl}-2,3-dihydro-1H-indene-1,3-dione]	~6 µM	89%	100%
CCCCC(=O)C1C(=O)c2ccc(C(=O)c3ccc4c(c3)C(=O)C(C(=O)CCCC)C4=O)cc2C1=O (stereo not shown) [Example 153, 5-(1,3-dioxo-2-pentanoyl-2,3-dihydro-1H-indene-5-carbonyl)-2-pentanoyl-2,3-dihydro-1H-indene-1,3-dione]	2.4 µM	100%	100%
CCCCC(=O)C1C(=O)c2ccc(S(=O)(=O)c3ccc4c(c3)C(=O)C(C(=O)CCCC)C4=O)cc2C1=O (stereo not shown) [Example 154, 5-[(1,3-dioxo-2-pentanoyl-2,3-dihydro-1H-inden-5-yl)sulfonyl]-2-pentanoyl-2,3-dihydro-1H-indene-1,3-dione]	1.2 µM	100%	100%
C[C@@H](C(=O)C1C(=O)c2ccc(C(=O)c3ccc4c(c3)C(=O)C(C(=O)[C@H](C)N(C)C(=O)OC(C)(C)C)C4=O)cc2C1=O)N(C)C(=O)OC(C)(C)C (stereo partly drawn) [Example 155, tert-butyl N-[(2S)-1-(5-{2-[(2S)-2-{[(tert-butoxy)carbonyl](methyl)amino}propanoyl]-1,3-dioxo-2,3-dihydro-1H-indene-5-carbonyl}-1,3-dioxo-2,3-dihydro-1H-inden-2-yl)-1-oxopropan-2-yl]-N-methylcarbamate]	2.1 µM	95%	100%
